Read-outs that look alike come from different tables or passages of the source.
How the values were obtained:
[1] = tested on: L. donovani axenic amastigotes; assay: Dose response study against axenic amastigotes (CellTiter-Glo); type: cell-based, Leishmania donovani; conditions: 72 h at 37°C, CellTiter-Glo, read-out: GI50 Axenic amastigote
Protocol: L. donovani axenic amastigotes (5×10^5 cells/ml in axenic amastigote media) were dispensed in sterile 96-well flat white opaque assay plates (Greiner Bio-One) using a WellMate multichannel dispenser (Matrix). […] 1% DMSO and amphotericin B (2 µM, 1% DMSO final concentration) were added as negative and positive controls respectively. Axenic amastigotes were incubated with the compounds for 72 h at 37°C with 5% CO2. Parasite viability was then measured using CellTiter-Glo as described above.

[2] = tested on: L. donovani intracellular amastigotes; assay: Intracellular amastigote high-throughput image-based assay in infected THP-1 macrophages; type: cell-based, Leishmania donovani; conditions: for GI50: L. donovani in THP-1, 72 h, parasites per host cell, read-out: GI50 Intracellular amastigote; for Primary screen against intracellular amastigotes, hit selection: 10 µM, duplicates, hit = 60% parasite growth inhibition and not more than 20% reduction in THP-1 numbers
Protocol: (§1) Sterile, black, 96-well, clear bottom plates (Greiner Bio-One) were seeded with exponentially growing THP-1 (5×10^5cells/ml). THP-1 were treated with 0.1 µM phorbol myristate acetate (PMA, Sigma) at 37°C for 48 h to achieve differentiation into adherent, non-dividing macrophages. Maturation of THP-1 cells towards monocyte-macrophage like cells is essential to avoid parasitized cells being overgrown by replicating cells. After activation by PMA, cells were washed and incubated with complete RPMI medium containing stationary phase L. donovani promastigotes at a macrophage/promastigote ratio of 1/15. After 4 h incubation at 37°C, non-internalized promastigotes were removed by 2–3 successive washes with RPMI containing 5% FBS and 5% horse serum. Test compounds (10 µM), positive control (2 µM amphotericin B) or negative control (1% DMSO) were then added to the cultures using a Biomek FXp liquid handler (Beckman Coulter). Cultures were incubated at 37°C for 72 h. Cells were then washed with phosphate-buffered saline (PBS), fixed for 30 minutes with 4% formaldehyde, rinsed again with PBS, stained for 2 h with 4′,6′-diamidino-2-phenylindole (DAPI 300 nM) and finally washed with PBS. […] Images were acquired with an INCell Analyzer 1000 automated epi-fluorescent microscope (G.E. Healthcare). The excitation and emission filters used to detect DAPI were 350/50 nm and 460/40 nm respectively. Eight image fields were acquired per well with a 20X objective. The proprietary INCell Developer Toolbox 1.7 software was used for image analysis. Segmentation parameters were set to identify host nuclei with a minimum area of 250 µm^2 and parasite kinetoplast with an average area of 1 µm^2. The intensity of parasite nucleus was too low to be detected with a 20X objective. A border, representing the boundary of the cell, was drawn around the nucleus (total area between 700 and 2000 µm^2). Only parasites found within this area were included in the calculation to eliminate extracellular parasites. False positive parasite detection in the nucleus was also excluded from the calculation. Host cell nuclei and parasite kinetoplasts were counted and the ratio of parasites DNA to host nuclei was selected as the measurement output. Percentage inhibition of parasite growth was calculated as [1-(P/hcx-P/hc^+)/(P/hc^−-P/hc^+)]*100 where P/hcx, P/hc^+ and P/hc^− are parasite per host cell ratio for every well, positive control (amphotericin B) and negative control (DMSO) respectively. Calculation of Z' factor and GI50 curve fitting were carried out as described above.

[3] = tested on: L. donovani promastigotes; assay: Promastigote high-throughput ATP-bioluminescence assay; type: cell-based, Leishmania donovani; conditions: 72 h at 27°C, CellTiter-Glo, read-out: GI50 Promastigote
Protocol: L. donovani promastigotes from an exponentially growing culture were diluted to 10^6/ml in RPMI containing 10% FBS and 10% BHT. The diluted culture (99 µl/well) was dispensed in sterile 96-well flat white opaque assay plates (Greiner Bio-One) using a WellMate multichannel dispenser (Matrix). 1 µl of 1 mM test compound dissolved in DMSO was added to the plates for a final concentration of 10 µM compound and 1% DMSO. Amphotericin B was added as a positive control (final concentration 2 µM, 1% DMSO) and as a negative control, 1 µl DMSO was added (1% final concentration). Compounds and controls were added to the assay plate with the robotic dispenser Biomek FXp liquid handler (Beckman Coulter). Promastigotes were incubated with the compounds for 72 h at 27°C. The parasites were then lysed by adding 50 µl of CellTiter-Glo (Promega) and placed on an orbital shaker for 5 min at room temperature. After lysis, the resulting ATP-bioluminescence was measured using the Analyst HT plate reader (Molecular Devices). Percentage inhibition of parasite growth was calculated for each well as [1-(RLUx-RLU^+)/(RLU^--RLU^+)]*100 where RLUx, RLU^+ and RLU^- are respectively the Relative Light Units for each well, positive (amphotericin B) and negative (DMSO) controls. A screening window coefficient, denoted Z' factor, was used to evaluate the performance of the assay. The Z' factor, calculated as 1-(3σc++3σc−)/(µc+−µc−) where σc+, σc−, µc+ and µc− are respectively the standard deviation and mean values of positive and negative controls, is reflective of the assay signal dynamic range and the data variation associated with signal measurement. […] GI50 curve fitting was carried out using GraphPad Prism 4 Software (GraphPad Software Inc., San Diego, CA).

[4] = tested on: THP-1; assay: Host cell toxicity: THP-1 host nuclei counts in the image-based assay; conditions: for GI50: read-out: GI50 THP-1; for Selectivity: ratio between parasite GI50 and THP-1 GI50
Protocol: as §1

[5] = Leishmania donovani, THP-1, 72 h
[6] = ratio between promastigote GI50 and intracellular amastigote GI50, >2 more active against intracellular amastigote, <0.4 more active against promastigotes
[7] = PMA-differentiated infected THP-1, 72 h, host nuclei count

| SMILES | GI50 ([1]; Leishmania donovani) | Specificity [2] | GI50 [2, 5] | GI50 ([3]; Leishmania donovani) | GI50 ([4]; Homo sapiens, THP-1, 72 h) | Selectivity [4] | Specificity [2, 6] | Effect on growth of intracellular L. donovani ([2]; 2 µM, 72 h) | Primary screen against intracellular amastigotes, hit selection [2] | GI50 [2] | GI50 [1] | GI50 [3] | GI50 [4, 7] |
| --- | --- | --- | --- | --- | --- | --- | --- | --- | --- | --- | --- | --- | --- |
| CC[C@@H](C(=O)[C@@H](C)[C@@H](O)[C@H](C)[C@@H]1O[C@@H]([C@@H](CC)C(=O)O)CC[C@@H]1C)[C@H]1O[C@]2(C=C[C@@H](O)[C@]3(CC[C@@](C)([C@H]4CC[C@](O)(CC)[C@H](C)O4)O3)O2)[C@H](C)C[C@@H]1C [Salinomycin] | 0.06 µM | 2.92 | 0.92 µM | 2.71 µM | 16.1 µM | 17.30 |  |  |  |  |  |  |  |
| COC(=O)C1=C(C)NC(C)=C(C(=O)OCC(C)C)C1c1ccccc1[N+](=O)[O-] (stereo not drawn) [Nisoldipine] | 13.9 µM |  | 32.2 µM | 9.85 µM | > 16.5 µM | 1.67 | 0.30 |  |  |  |  |  |  |
| COc1ccccc1OCCNCC(O)COc1cccc2[nH]c3ccccc3c12 (stereo not drawn) [Carvedilol] | > 16.5 µM |  | 6.16 µM | 12.4 µM | 37.5 µM | 6.07 | 2.01 |  |  |  |  |  |  |
| C[C@@H]1[C@H](O)[C@@H](C)/C=C/C=C/C=C/C=C/C=C/C=C/C=C/[C@H](O[C@@H]2O[C@H](C)[C@@H](O)[C@H](N)[C@@H]2O)C[C@@H]2O[C@](O)(C[C@@H](O)C[C@@H](O)[C@H](O)CC[C@@H](O)C[C@@H](O)CC(=O)O[C@H]1C)C[C@H](O)[C@H]2C(=O)O [Amphotericin B] | 5.42 µM |  |  | 1.61 µM | > 50 µM | 44.52 | 1.43 | significantly inhibited growth | active | 1.12 µM |  |  |  |
| N=C(N)c1ccc(OCCCCCOc2ccc(C(=N)N)cc2)cc1 [Pentamidine Isethionate] | 1.64 µM |  | 9.55 µM | 1.69 µM | > 50 µM | 29.49 | 0.17 |  | active |  |  |  |  |
| C=C1C(=O)O[C@H]2[C@H]1CC/C(C)=C/CC[C@@]1(C)O[C@@H]21 [Parthenolide] | 4.35 µM |  | > 50 µM | 15.5 µM | > 16.5 µM | 1.06 | 0.31 |  |  |  |  |  |  |
| CCC(c1ccc(OCCN(CC)CC)cc1)C(CC)c1ccc(OCCN(CC)CC)cc1 (stereo not drawn) [4,4′-Diethylaminoethoxyhexestrol] |  |  |  |  |  | 4.36 | 3.57 |  |  | 1.4 µM | 10.9 µM | 5 µM | 6.11 µM |
| [H]/N=C(\N/C(=N/[H])NCCCCCCNC(=N)NC(=N)Nc1ccc(Cl)cc1)Nc1ccc(Cl)cc1 [Chlorhexidine] | 4.78 µM |  | 1.79 µM | 2.81 µM | > 16.5 µM | 9.27 | 1.56 |  |  |  |  |  |  |
| Cc1ccc2c(Cl)cc(Cl)c(O)c2n1 [chlorquinaldol] | 1.72 µM |  | 5.5 µM | 6.3 µM | 39.3 µM | 7.14 | 1.14 |  |  |  |  |  |  |
| CCCCCC[C@H]1C(=O)O[C@H](C)[C@H](NC(=O)c2cccc(NC=O)c2O)C(=O)O[C@@H](C)[C@@H]1OC(=O)CC(C)C [Antimycin A] | 0.01 µM |  | 2.15 µM | 0.1 µM | > 50 µM | 500 | 0.05 |  |  |  |  |  |  |
| COC(=O)C[C@](O)(CCC(C)(C)O)C(=O)O[C@@H]1C(OC)=C[C@]23CCCN2CCc2cc4c(cc2[C@H]13)OCO4 [Harringtonin] |  | 3.39 |  |  |  | 0.02 |  |  |  | 4.89 µM | 10.6 µM | 16.6 µM | 0.1 µM |
| CCOC(=O)C1=C(COCCN)NC(C)=C(C(=O)OC)C1c1ccccc1Cl (stereo not drawn) [Amlodipine] | 27 µM |  | 9.78 µM | 3.11 µM | > 16.5 µM |  | 0.31 |  |  |  |  |  |  |
| CC[C@H]1CN2CCc3cc(OC)c(OC)cc3[C@@H]2C[C@@H]1C[C@H]1NCCc2cc(OC)c(OC)cc21 [Emetine] | 1.62 µM |  | 0.082 µM | 0.03 µM | 1.28 µM |  |  |  |  |  |  |  |  |
| Cc1cc(C2CCCCC2)n(O)c(=O)c1 [Ciclopirox] | > 50 µM |  | 22 µM | 15.2 µM | 42 µM | 1.90 | 0.69 |  |  |  |  |  |  |
| CN1C[C@H](CNC(=O)OCc2ccccc2)C[C@@H]2c3cccc4c3c(cn4C)C[C@H]21 [Metergoline] | > 50 µM |  | 0.78 µM | 15.1 µM | 37.1 µM | 47.22 | 19.17 |  |  |  |  |  |  |
| CC(=O)OC[C@H]1O[C@@H]([S-])[C@H](OC(C)=O)[C@@H](OC(C)=O)[C@@H]1OC(C)=O.CCP(CC)CC.[Au+] [Auranofin] |  |  |  |  |  | 1.88 | 0.51 |  |  | 21.8 µM | > 50 µM | 11.1 µM | 20.9 µM |
